Measurements published in ChEMBL document CHEMBL1221372, “Design and synthesis of new adamantyl-substituted antileishmanial ether phospholipids” (Bioorg Med Chem Lett, 2010).

Experiments:
[1] = system: Leishmania infantum; assay: Antileishmanial activity against intracellular amastigote form of Leishmania infantum MON 235 infected in human THP1 cells after 48 hrs using giemsa staining; assay type: functional, organism-based; conditions: MON 235, THP-1, 48 h
[2] = Selectivity index, ratio of IC50 for human THP1 cells to IC50 for intracellular amastigote form of Leishmania infantum MON 235; assay type: toxicity, cell-based, THP-1; conditions: read-out: Ratio IC50
[3] = system: THP-1; assay: Cytotoxicity against human THP1 cells using propidium iodide and SYBR-14 staining after 72 hrs by flow cytometry; assay type: cell-based; conditions: THP-1, 72 h
[4] = system: Leishmania infantum; assay: Antileishmanial activity against intracellular amastigote form of Leishmania infantum MK-1 infected in human THP1 cells after 48 hrs using giemsa staining; assay type: functional, organism-based; conditions: MK-1, THP-1, 48 h
[5] = species: Homo sapiens; assay: Half life in human; assay type: ADME, organism-based; conditions: in vivo
[6] = Selectivity index, ratio of IC50 for human THP1 cells to IC50 for intracellular amastigote form of Leishmania infantum MK-1; assay type: toxicity, cell-based, THP-1; conditions: read-out: Ratio IC50

Row | IC50 [1] | IC50 [4] | t1/2 [5] | Compound | selectivity ratio [2] | IC50 [3] | selectivity ratio [6]
1 | 0.3 µM |  |  | C[N+](C)(C)[C@H]1CCC[C@@H]1OP(=O)([O-])OCCCCCCCCCCC=C1C2CC3CC(C2)CC1C3 | 250 | 75 µM | 
2 | 0.8 µM |  |  | C[N+](C)(C)[C@H]1CCCC[C@@H]1OP(=O)([O-])OCCCCCCCCCCC=C1C2CC3CC(C2)CC1C3 | 49.6 | 39.7 µM | 
3 | 5.69 µM |  |  | C[N+]1(CCOP(=O)([O-])OCCCCCCCCCCC=C2C3CC4CC(C3)CC2C4)CCCCC1 | 29.6 |  | 
4 | 1.34 µM |  |  | C[N+]1(CCOP(=O)([O-])OCCCCCCCCCCC=C2C3CC4CC(C3)CC2C4)CCOCC1 | 27.9 |  | 
5 | 0.031 µM |  |  | C[N+](C)(C)CCOP(=O)([O-])OCCCCCCCCCCC=C1C2CC3CC(C2)CC1C3 | 1920 |  | 
6 | 5.2 µM |  |  | C[N+](C)(C)CC#CCOP(=O)([O-])OCCCCCCCCCCC=C1C2CC3CC(C2)CC1C3 | 14.5 |  | 
7 | 9.1 µM |  |  | C[N+]1(C)C2CCC1CC(=CCOP(=O)([O-])OCCCCCCCCCCC=C1C3CC4CC(C3)CC1C4)C2 | 16.2 |  | 

Further lines, the molecule ahead of its results:

Row | Compound | IC50 [1] | IC50 [4] | t1/2 [5] | selectivity ratio [2] | IC50 [3] | selectivity ratio [6]
8 | CCCCOCCC12CC3CC(C1)CC(CCOP(=O)([O-])OCC[N+](C)(C)C)(C3)C2 |  | > 50 µM |  |  | > 50 µM | 
9 | CCCCCCOCCC12CC3CC(C1)CC(CCOP(=O)([O-])OCC[N+](C)(C)C)(C3)C2 |  | 17.1 µM |  |  | > 50 µM | 
10 | CCCCCCCCOCCC12CC3CC(C1)CC(CCOP(=O)([O-])OCC[N+](C)(C)C)(C3)C2 |  | 16.2 µM |  |  | > 50 µM | 
11 | CCCCCCCCCCOCCC12CC3CC(C1)CC(CCOP(=O)([O-])OCC[N+](C)(C)C)(C3)C2 |  | > 18.4 µM |  |  | 18.4 µM | 
12 | CCCCCCCCCCCCOCCC12CC3CC(C1)CC(CCOP(=O)([O-])OCC[N+](C)(C)C)(C3)C2 |  | > 21.4 µM |  |  | 21.4 µM | 
13 | C[N+](C)(C)CCOP(=O)([O-])OCCC12CC3CC(CC(CCOCc4ccccc4)(C3)C1)C2 |  | 41.8 µM |  |  | > 50 µM | 
14 | CCCCCCCCCCCCCCCCOP(=O)([O-])OCC[N+](C)(C)C [MILTEFOSINE] | 6.7 µM | 2.56 µM | 100 min | 8.7 |  | 11.2
